For assay [1], the target named is T1, human tyrosinase (Homo sapiens, UniProt P14679).
T1 construct: gene TYR; recombinant human tyrosinase (OriGene TP321797L)
T1 sequence (P14679 19-529): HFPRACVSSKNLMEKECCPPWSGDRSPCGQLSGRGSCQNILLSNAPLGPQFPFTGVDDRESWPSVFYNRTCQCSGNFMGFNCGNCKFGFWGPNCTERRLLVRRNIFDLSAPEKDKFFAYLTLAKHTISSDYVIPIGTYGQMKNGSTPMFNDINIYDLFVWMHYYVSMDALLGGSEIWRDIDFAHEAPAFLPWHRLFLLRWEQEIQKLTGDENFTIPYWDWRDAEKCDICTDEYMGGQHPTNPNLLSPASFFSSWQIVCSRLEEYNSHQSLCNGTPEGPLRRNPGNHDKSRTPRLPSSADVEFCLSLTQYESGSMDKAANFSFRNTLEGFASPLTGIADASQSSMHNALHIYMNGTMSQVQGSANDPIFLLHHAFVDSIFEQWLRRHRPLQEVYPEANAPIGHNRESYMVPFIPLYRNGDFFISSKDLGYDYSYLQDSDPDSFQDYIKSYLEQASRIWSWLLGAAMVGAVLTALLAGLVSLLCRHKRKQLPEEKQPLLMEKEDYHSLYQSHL
Nature of the assay: substrate of the tyrosinase assay ([…]), absorbance at […] nm. It counts as biochemical.

The target of assay [2] is T1, human tyrosinase. Kind of assay: L-DOPA oxidation assay with recombinant human tyrosinase, absorbance at […] nm. It counts as biochemical.

Read-outs that look alike come from different tables or passages of the source.

`N[C@@H](Cc1ccc(O)c(O)c1)C(=O)O` [L-DOPA]: the “substrate of the tyrosinase assay (0.5 mM), absorbance at 492 nm” value in assay [1] is “Inhibition of human tyrosinase activity by oxyresveratrol, resveratrol, phenylethyl resorcinol, and glabridin in vitro, using L-DOPA as substrate”.
As to `Oc1ccc(/C=C/c2cc(O)cc(O)c2)cc1` [compound 2, Resveratrol], the IC50 in assay [2] was 57.2 µM.
Take `CC(c1ccccc1)c1ccc(O)cc1O` (stereo not drawn) [compound 3, Phenylethyl resorcinol]: in assay [2] (read-out: IC50 (μg/mL) (converted)), the IC50 is 88.5 µM.

The values above are taken from article PMC12218520, “Oxyresveratrol suppressed melanogenesis, dendrite formation, and melanosome transport in melanocytes via regulation of the MC1R/cAMP/MITF pathway” (Scientific Reports, 2025).
